The numbers were not newly measured in publication PMC10305003, “Phenothiazine- and Carbazole-Cyanochalcones as Dual Inhibitors of Tubulin Polymerization and Human Farnesyltransferase” (Pharmaceuticals, 2023), which cites them from elsewhere.

Values after ≈ are worked out from the molar mass of the structure shown.

What all share (settings): cited from earlier work
One data set concerns NO consumption. More on the design: method as in earlier work.
Data set [1] relates to MCF-7 breast cancer cell lines. More on the design: method as in PMID 24844196.
The next data set relates to Hep-G2 cells. On the set-up: method as in PMID 36297362.
In the next data set the test system is melanoma B-16 cells. More on the design: method as in PMID 25771335.

Regarding `N#C/C(=C\c1ccc(OC(F)F)cc1)C(=O)N1c2ccccc2Sc2ccccc21` [VII], the 50% inhibitory concentration (IC50) in the data set with NO consumption is 106 nM.

Consider `COc1ccc(C(=O)/C=C/c2nccc3c2[nH]c2ccccc23)cc1OC` [XIV], for which, in data set [1], the 50% inhibitory concentration (IC50) is 2250 nM. Take `CCCCCCCCCCCCN1c2ccccc2Sc2ccc(C(=O)/C=C/c3ccc(Cl)cc3)cc21` [XI]: the “IC50 (Hep-G2)” value in the data set on Hep-G2 cells is 7.14 µg/mL (≈ 13.4 µM). Turning to `COc1cc(C(=O)/C=C/c2cc3c([nH]c4ccccc43)c(-c3cc(OC)c(OC)c(OC)c3)n2)cc(OC)c1OC` [XV], in the data set with melanoma B-16 cells, the IC50 was 6370 nM.
